Among the data in US20230159509A1 (Amathus Therapeutics, Inc., priority 2020, published 2023) are EC50, Emax and activation values, retold here.

This test has as its target T1, TRAP1 enzyme (Homo sapiens, UniProt Q12931).
T1 construct: 150 nM Trap1 enzyme was incubated with various concentrations of the test compound
T1 sequence (Q12931 60-704): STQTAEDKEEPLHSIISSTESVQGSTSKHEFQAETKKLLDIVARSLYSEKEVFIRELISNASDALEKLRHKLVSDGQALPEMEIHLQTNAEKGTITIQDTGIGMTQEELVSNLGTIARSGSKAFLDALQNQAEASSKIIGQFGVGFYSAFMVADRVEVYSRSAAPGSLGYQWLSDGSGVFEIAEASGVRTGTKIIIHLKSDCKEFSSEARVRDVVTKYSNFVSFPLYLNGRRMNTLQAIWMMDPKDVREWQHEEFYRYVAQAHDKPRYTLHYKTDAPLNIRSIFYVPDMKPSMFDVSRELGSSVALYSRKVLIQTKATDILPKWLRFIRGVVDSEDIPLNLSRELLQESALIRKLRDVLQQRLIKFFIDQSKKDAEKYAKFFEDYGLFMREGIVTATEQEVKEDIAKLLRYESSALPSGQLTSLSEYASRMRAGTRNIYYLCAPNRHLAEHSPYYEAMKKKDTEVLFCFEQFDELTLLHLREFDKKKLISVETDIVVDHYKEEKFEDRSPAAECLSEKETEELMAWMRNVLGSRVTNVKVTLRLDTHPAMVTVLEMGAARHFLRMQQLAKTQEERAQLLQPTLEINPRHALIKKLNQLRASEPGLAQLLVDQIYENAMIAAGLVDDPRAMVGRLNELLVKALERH
Nature of the test: ADP Glo assay of TRAP1 ATPase activity. Conditions: for EC50: concentration for half maximal activation, read-out: ADP GLO DRC: GeoMean EC50; for Emax: maximal percent activation, read-out: ADP GLO DRC: Mean Emax; for activation at 50 µM: 1 h, compound concentration 50 μM, read-out: ADP-Glo Percent Activation at 50 μM. Format: biochemical. In outline: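 Compound (0.79–100 μM) was preincubated 30 min at 37° C with 150 nM TRAP1 in 25 mM Pipes pH 7.5, 40 mM KCl, 0.05 mM MgCl2. Reaction started with 20 μM ATP, 60 min at 37° C. ADP measured by luminescence against a standard curve; activation fitted sigmoidally for EC50 and Emax.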
(In general: In ADP-Glo the light output rises with the ADP produced.)

Consider `COc1ncc(NC(=O)c2csc(-c3ccccc3)n2)cc1S(=O)(=O)Nc1ccc(C(F)(F)F)cn1` [compound 2005], for which the EC50 – broadly, the midpoint of the concentration-response curve – was 20 to 100 µM and the Emax – broadly, the maximal effect, on the per cent scale that the assay sets – lay in the range of 119 to 159%.

Turning to `COc1ncc(NC(=O)c2cc3n(n2)CCC3)cc1S(=O)(=O)Nc1c(C)cccc1C` [compound 2663], the activation at 50 µM lay in the range of 151 to 180%.

For the compound `COc1ccnc(C(=O)Nc2cnc(OC)c(S(=O)(=O)Nc3c(C)cccc3C)c2)c1` [compound 2657], the activation at 50 µM was in the range of 181 to 352%.

On to `COc1ncc(NC(=O)c2cnn3c2OCCC3)cc1S(=O)(=O)Nc1c(C)cccc1C` [compound 2577], for which the activation at 50 µM lay in the range of 120 to 150%.

`COc1ncc(NC(=O)c2ncc(-c3ccccc3)o2)cc1S(=O)(=O)Nc1cccc2cncc(C)c12` [compound 1513]: the EC50 was less than 10 µM and the maximal effect (Emax) is 160 to 199%.

`COc1ncc(NC(=O)c2csc(-c3ccccc3)n2)cc1S(=O)(=O)Nc1cc(C(F)(F)F)n[nH]1` [compound 1746]: the EC50 was in the range of 20 to 100 µM and the Emax is 200 to 300%.

Turning to `COc1ncc(NC(=O)c2ccc(NC(C)=O)c(C)c2)cc1S(=O)(=O)Nc1c(C)cccc1C` [compound 2688], the activation at 50 µM is 151 to 180%.

For `COc1ncc(NC(=O)c2ncc(-c3ccccc3)o2)cc1S(=O)(=O)Nc1nc(C(C)(C)C)ns1` [compound 2396], the EC50 lay in the range of 20 to 100 µM and the maximal response (Emax) lay in the range of 160 to 199%.

With `COc1cccc(OC)c1NS(=O)(=O)c1cc(NC(=O)c2csc(-c3ccccc3)n2)cnc1OC` [compound 1386, N-(5-(N-(2,6-dimethoxyphenyl)sulfamoyl)-6-methoxypyridin-3-yl)-2-phenylthiazole-4-carboxamide], the EC50 is less than 10 µM and the Emax fell in the range of 200 to 300%.

For the compound `CCc1oncc1C(=O)Nc1cnc(OC)c(S(=O)(=O)Nc2c(C)cccc2C)c1` [compound 2711], the activation at 50 µM lay within 120 to 150%.

As to `COc1ncc(NC(=O)c2csc(-c3ccccc3)n2)cc1S(=O)(=O)Nc1nnn(Cc2ccccc2)n1` [compound 1912], the EC50 was in the range of 20 to 100 µM and the Emax was in the range of 200 to 300%.

For the compound `COc1ncc(NC(=O)c2csc(-c3cc(F)c(F)c(F)c3)n2)cc1S(=O)(=O)Nc1cc(C)n(C(C)C)n1` [compound 2407], the EC50 was 10 to 20 µM and the Emax lay in the range of 119 to 159%.

Take `COc1ncc(NC(=O)c2cncs2)cc1S(=O)(=O)Nc1c(C)cccc1C` [compound 2658]: the activation at 50 µM was 120 to 150%.

With `COc1ncc(NC(=O)c2scnc2C(F)(F)F)cc1S(=O)(=O)Nc1c(C)cccc1C` [compound 2649], the activation at 50 µM fell in the range of 151 to 180%.

Regarding `COCCOc1cc(NS(=O)(=O)c2cc(NC(=O)c3csc(-c4ccccc4)n3)cnc2OC)ccn1` [compound 1760], the EC50 is 20 to 100 µM and the Emax was 119 to 159%.

Regarding `COc1ncc(NC(=O)c2cn(C)nc2C(F)(F)F)cc1S(=O)(=O)Nc1c(C)cccc1C` [compound 2608], the activation at 50 µM was in the range of 151 to 180%.

As to `COc1ncc(NC(=O)c2csc(-c3ccccc3)n2)cc1S(=O)(=O)Nc1ccc2nn[nH]c2c1` [compound 1926], the EC50 was in the range of 20 to 100 µM and the Emax lay within 119 to 159%.

In the case of `COc1ncc(NC(=O)c2csc(-c3ccccc3)n2)cc1S(=O)(=O)Nc1c(C)cccc1P(C)(C)=O` [compound 2506], the EC50 lay in the range of 20 to 100 µM and the Emax lay in the range of 200 to 300%.

As for `COc1ncc(NC(=O)c2coc(-c3ccccc3)n2)cc1S(=O)(=O)Nc1cc(F)c(F)cc1C` [compound 2002], the EC50 fell in the range of 10 to 20 µM and the Emax lay in the range of 160 to 199%.

As to `CCCN1CCN(c2ccc(C(=O)Nc3cnc(OC)c(S(=O)(=O)Nc4c(C)cccc4C)c3)cc2)CC1` [compound 2769], the activation at 50 µM was 181 to 352%.

Take `COc1ncc(NC(=O)c2csc3c2CCC3)cc1S(=O)(=O)Nc1c(C)cccc1C` [compound 1425, N-(5-(N-(2,6-dimethylphenyl)sulfamoyl)-6-methoxypyridin-3-yl)-5,6-dihydro-4H-cyclopenta[b]thiophene-3-carboxamide]: the EC50 is less than 10 µM and the maximal effect (Emax) lay within 160 to 199%.

On to `COc1ncc(NC(=O)c2ccc(CO)cc2)cc1S(=O)(=O)Nc1c(C)cccc1C` [compound 2766], for which the activation at 50 µM lay in the range of 151 to 180%.

Consider `COc1ncc(NC(=O)c2ccnc(Br)c2)cc1S(=O)(=O)Nc1c(C)cccc1C` [compound 1935, 1,2-bromo-N-(5-(N-(2,6-dimethylphenyl)sulfamoyl)-6-methoxypyridin-3-yl)isonicotinamide], for which the EC50 lay within 20 to 100 µM and the Emax was in the range of 200 to 300%.

As to `COc1ncc(NC(=O)c2nc(C(F)(F)F)cs2)cc1S(=O)(=O)Nc1c(C)cccc1C` [compound 2659], the activation at 50 µM lay within 151 to 180%.

`COc1ncc(NC(=O)c2csc(-c3ccncc3)n2)cc1S(=O)(=O)Nc1c(C)cccc1C` [compound 1351, N-(5-(N-(2,6-dimethylphenyl)sulfamoyl)-6-methoxypyridin-3-yl)-2-(pyridin-4-yl)thiazole-4-carboxamide]: the EC50 lay in the range of 10 to 20 µM and the Emax lay in the range of 119 to 159%.

For the compound `COc1ncc(NC(=O)c2nn(C)c3ccccc23)cc1S(=O)(=O)Nc1c(C)cccc1C` [compound 1423, N-(5-(N-(2,6-dimethylphenyl)sulfamoyl)-6-methoxypyridin-3-yl)-1-methyl-1H-indazole-3-carboxamide], the EC50 is less than 10 µM and the Emax fell in the range of 160 to 199%.

For the compound `COc1ncc(NC(=O)c2csc(-c3cc(F)c(F)c(F)c3)n2)cc1S(=O)(=O)Nc1c(C)csc1C` [compound 2466], the EC50 was less than 10 µM and the Emax was 160 to 199%.

With `COc1ncc(NC(=O)c2ncc(-c3ccccc3)o2)cc1S(=O)(=O)Nc1nc(C(F)(F)F)ccc1C` [compound 2512], the EC50 was in the range of 10 to 20 µM and the Emax lay within 119 to 159%.

As to `COc1ncc(NC(=O)c2csc(-c3ccccc3)n2)cc1S(=O)(=O)Nc1ccccc1C` [compound 1350, N-(6-methoxy-5-(N-(o-tolyl)sulfamoyl)pyridin-3-yl)-2-phenylthiazole-4-carboxamide], the EC50 was less than 10 µM and the Emax was 119 to 159%.

For `COc1ncc(NC(=O)c2ncccc2C(=O)c2ccccc2)cc1S(=O)(=O)Nc1ccc(Cl)cc1` [compound 1195, 3-benzoyl-N-(5-(N-(4-chlorophenyl)sulfamoyl)-6-methoxypyridin-3-yl)picolinamide], the EC50 was in the range of 10 to 20 µM and the Emax lay in the range of 160 to 199%.

Take `COc1ncc(NC(=O)c2ncc(-c3ccccc3)o2)cc1S(=O)(=O)Nc1ccc(F)cc1C(C)C` [compound 1514]: the concentration giving a half-maximal response (EC50) was less than 10 µM and the Emax lay in the range of 160 to 199%.

With `COc1ncc(NC(=O)c2cccc3c2CCC3)cc1S(=O)(=O)Nc1c(C)cccc1C` [compound 2621], the activation at 50 µM was in the range of 151 to 180%.

As to `COc1ncc(NC(=O)c2cc(C(C)C)no2)cc1S(=O)(=O)Nc1c(C)cccc1C` [compound 2555], the activation at 50 µM fell in the range of 181 to 352%.

As for `COc1ncc(NC(=O)c2csc(-c3ccccc3)n2)cc1S(=O)(=O)Nc1c(C#N)cnn1C` [compound 1911], the EC50 is 20 to 100 µM and the Emax is 119 to 159%.

In the case of `COc1ncc(NC(=O)c2nn(C)cc2C)cc1S(=O)(=O)Nc1c(C)cccc1C` [compound 2643], the activation at 50 µM was 181 to 352%.

For the compound `COc1ncc(NC(=O)c2cccc(NC(=O)N(C)C)c2)cc1S(=O)(=O)Nc1c(C)cccc1C` [compound 2784], the activation at 50 µM was in the range of 181 to 352%.
